In paper PMC5394417, “Investigating the molecular mechanism of positive and negative allosteric modulators in the calcium-sensing receptor dimer” (Scientific Reports, 2017):

Molecular target: T1, HA-S147A/S170A CaSR mutant (Rattus norvegicus, UniProt P48442, S147A/S170A)
T1 construct: mGluR5 signal peptide (N); expressed in transfected cells; host or cells: HEK293T
T1 sequence (P48442 20-1079 S147A/S170A): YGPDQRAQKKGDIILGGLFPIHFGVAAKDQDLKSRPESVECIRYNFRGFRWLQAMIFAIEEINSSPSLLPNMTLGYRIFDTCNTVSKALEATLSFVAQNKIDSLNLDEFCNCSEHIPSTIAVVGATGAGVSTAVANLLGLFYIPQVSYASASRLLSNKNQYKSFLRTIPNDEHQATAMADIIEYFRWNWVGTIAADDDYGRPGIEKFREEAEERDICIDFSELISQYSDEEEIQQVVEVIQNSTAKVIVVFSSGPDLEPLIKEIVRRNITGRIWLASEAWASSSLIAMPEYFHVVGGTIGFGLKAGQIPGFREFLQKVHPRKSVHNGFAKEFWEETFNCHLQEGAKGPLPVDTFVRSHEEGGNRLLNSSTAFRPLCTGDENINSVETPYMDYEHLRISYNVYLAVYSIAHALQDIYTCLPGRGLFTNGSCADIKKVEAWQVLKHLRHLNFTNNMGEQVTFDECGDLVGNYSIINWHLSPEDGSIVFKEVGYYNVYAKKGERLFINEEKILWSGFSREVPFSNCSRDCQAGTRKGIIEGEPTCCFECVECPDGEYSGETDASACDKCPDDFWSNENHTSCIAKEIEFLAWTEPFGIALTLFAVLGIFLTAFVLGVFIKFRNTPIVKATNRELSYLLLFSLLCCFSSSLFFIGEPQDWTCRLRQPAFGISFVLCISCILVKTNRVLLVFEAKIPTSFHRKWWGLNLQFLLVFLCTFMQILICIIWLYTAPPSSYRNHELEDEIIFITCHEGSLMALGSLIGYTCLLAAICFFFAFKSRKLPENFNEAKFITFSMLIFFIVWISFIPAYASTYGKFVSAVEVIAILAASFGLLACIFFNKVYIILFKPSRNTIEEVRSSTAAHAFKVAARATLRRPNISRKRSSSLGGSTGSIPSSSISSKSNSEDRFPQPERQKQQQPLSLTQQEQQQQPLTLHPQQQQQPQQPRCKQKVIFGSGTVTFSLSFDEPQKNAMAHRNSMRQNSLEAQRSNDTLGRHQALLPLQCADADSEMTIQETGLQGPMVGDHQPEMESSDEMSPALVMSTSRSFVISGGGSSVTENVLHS
Test: IP-One assay, HEK293T transiently transfected
Format: cell-based

EC50 (Ca^2+ alone): 9.04 mM
Hill coefficient ± S.E.M. (Ca^2+ alone): 3.00 ± 0.07
pEC50 ± S.E.M. (Ca^2+ alone): 2.04 ± 0.02
Max ± S.E.M. (normalized to maximum response of WT CaSR): 130 ± 28%
SMILES: [Ca+2] [Ca^2+]
